In ChEMBL document CHEMBL1201862, “PubChem BioAssay data set” (2004):
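In this assay, cells in 96-well plates receive the compound at five concentrations for 48 hours. Endpoints are linearly interpolated between the surrounding concentrations. At the GI50, growth is halved.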 Activity calls are given as the source filed them. Cut-off read from the data, not from the text of the source: active = GI50 up to about 1.1 µM and inactive = higher.

Legend:
Experiment in all cases: DTP human tumour cell line panel, 48 h
DU-145 = system: DU-145
UACC-257 = system: UACC-257
A549 = system: A549
786-0 = system: 786-0
HT-29 = system: HT-29
SK-MEL-2 = system: SK-MEL-2
EKVX = system: EKVX
SNB-75 = system: SNB-75
IGROV-1 = system: IGROV-1
HCT-116 = system: HCT-116
COLO 205 = system: COLO 205
A498 = system: A498
OVCAR-3 = system: OVCAR-3
OVCAR-4 = system: OVCAR-4
HOP-62 = system: HOP-62
PC-3 = system: PC-3
MOLT-4 = system: MOLT-4
SK-MEL-28 = system: SK-MEL-28
SK-OV-3 = system: SK-OV-3
UACC-62 = system: UACC-62

Compound	GI50 (DU-145)	GI50 (UACC-257)	GI50 (A549)	GI50 (786-0)	GI50 (HT-29)	GI50 (SK-MEL-2)	GI50 (EKVX)	GI50 (SNB-75)	GI50 (IGROV-1)	GI50 (HCT-116)	GI50 (COLO 205)	GI50 (A498)	GI50 (OVCAR-3)	GI50 (OVCAR-4)	GI50 (HOP-62)	GI50 (PC-3)	GI50 (MOLT-4)	GI50 (SK-MEL-28)	GI50 (SK-OV-3)	GI50 (UACC-62)
C=CCC(NCc1ccccc1)[C@H](OCc1ccccc1)[C@@H]1COC(C)(C)O1 (stereo partly drawn)	97.3 µM (inactive)	22.9 µM (inactive)	39 µM (inactive)	30.4 µM (inactive)	11.7 µM (inactive)	19.6 µM (inactive)	32.5 µM (inactive)	49 µM (inactive)	35.8 µM (inactive)	23.7 µM (inactive)	14.5 µM (inactive)	45.6 µM (inactive)	44.9 µM (inactive)	44.7 µM (inactive)	55.1 µM (inactive)	31.9 µM (inactive)	23.7 µM (inactive)	47.1 µM (inactive)	79.3 µM (inactive)	40.6 µM (inactive)
O=S1(=O)c2ccccc2N2CCCc3cc(Cl)cc1c32	> 100 µM (inactive)	> 100 µM (inactive)	> 100 µM (inactive)	40.4 µM (inactive)	> 100 µM (inactive)	44.2 µM (inactive)	> 100 µM (inactive)	12.6 µM (inactive)	> 100 µM (inactive)	> 100 µM (inactive)	> 100 µM (inactive)	> 100 µM (inactive)	67.5 µM (inactive)	46.2 µM (inactive)	41.1 µM (inactive)	> 100 µM (inactive)	> 100 µM (inactive)	> 100 µM (inactive)	51.9 µM (inactive)	60.1 µM (inactive)
CC(=O)Oc1c(N2CCCCC2)c(C(=O)c2ccccc2)c(O)c2ccn(N(C)C)c12	21.8 µM (inactive)	16.8 µM (inactive)	12.4 µM (inactive)	17.5 µM (inactive)	14.6 µM (inactive)	25.2 µM (inactive)	16.1 µM (inactive)	13.2 µM (inactive)	–	9.51 µM (inactive)	16.7 µM (inactive)	15.3 µM (inactive)	19.6 µM (inactive)	24.5 µM (inactive)	27.2 µM (inactive)	10.9 µM (inactive)	0.736 µM (active)	19.1 µM (inactive)	20.8 µM (inactive)	15 µM (inactive)
Cc1cc(O)nc(NN2C(Cl)C(=O)C2c2ccccc2O)n1 (stereo not drawn)	4.06 µM (inactive)	3.4 µM (inactive)	4.26 µM (inactive)	2.53 µM (inactive)	8.39 µM (inactive)	1.61 µM (inactive)	3.27 µM (inactive)	2.54 µM (inactive)	3.75 µM (inactive)	2.14 µM (inactive)	12.1 µM (inactive)	12.2 µM (inactive)	0.33 µM (active)	8.49 µM (inactive)	1.76 µM (inactive)	1.32 µM (inactive)	0.585 µM (active)	4.94 µM (inactive)	1.44 µM (inactive)	1.6 µM (inactive)
Cc1cc(=O)c2ccccc2n1CCCCCCCCCCn1c(C)cc(=O)c2ccccc21	14 µM (inactive)	11.7 µM (inactive)	20 µM (inactive)	16.4 µM (inactive)	15.9 µM (inactive)	> 10 µM (inactive)	11.7 µM (inactive)	30.2 µM (inactive)	17.2 µM (inactive)	8.09 µM (inactive)	21.9 µM (inactive)	15.1 µM (inactive)	37.3 µM (inactive)	15.4 µM (inactive)	> 100 µM (inactive)	28.8 µM (inactive)	8.69 µM (inactive)	20.8 µM (inactive)	19.3 µM (inactive)	17.1 µM (inactive)
CN(C)CCCNC(=O)c1cc(NS(=O)(=O)c2ccc3c(c2)C(=O)c2ccccc2C3=O)cn1C	40.3 µM (inactive)	19.2 µM (inactive)	35.9 µM (inactive)	28.7 µM (inactive)	28.8 µM (inactive)	40.5 µM (inactive)	> 100 µM (inactive)	30.8 µM (inactive)	33 µM (inactive)	51.3 µM (inactive)	23.6 µM (inactive)	23.2 µM (inactive)	13.5 µM (inactive)	16.8 µM (inactive)	37.8 µM (inactive)	33.3 µM (inactive)	32.7 µM (inactive)	27.1 µM (inactive)	92.5 µM (inactive)	20.8 µM (inactive)
Nc1nc(N)c(NC(=O)CCCO)c(=O)[nH]1	> 100 µM (inactive)	> 100 µM (inactive)	> 100 µM (inactive)	> 100 µM (inactive)	> 100 µM (inactive)	> 100 µM (inactive)	> 100 µM (inactive)	> 100 µM (inactive)	> 100 µM (inactive)	> 100 µM (inactive)	> 100 µM (inactive)	> 100 µM (inactive)	> 100 µM (inactive)	> 100 µM (inactive)	> 100 µM (inactive)	> 100 µM (inactive)	> 100 µM (inactive)	–	> 100 µM (inactive)	> 100 µM (inactive)
C=CC[C@H](N=C(SC)SC)C(=O)N1C(=O)N(C)[C@@H](C)[C@H]1c1ccccc1	37.5 µM (inactive)	29.2 µM (inactive)	35.3 µM (inactive)	46.6 µM (inactive)	38.6 µM (inactive)	30 µM (inactive)	31.3 µM (inactive)	36.4 µM (inactive)	–	33 µM (inactive)	28 µM (inactive)	56.8 µM (inactive)	29.4 µM (inactive)	29.9 µM (inactive)	46.5 µM (inactive)	33.7 µM (inactive)	26.4 µM (inactive)	39.5 µM (inactive)	75 µM (inactive)	35.1 µM (inactive)
Cc1cc(-c2c(Br)cc(C(=O)O)n2C)on1	> 100 µM (inactive)	> 100 µM (inactive)	> 100 µM (inactive)	> 100 µM (inactive)	> 100 µM (inactive)	> 100 µM (inactive)	> 100 µM (inactive)	> 100 µM (inactive)	–	> 100 µM (inactive)	> 100 µM (inactive)	> 100 µM (inactive)	> 100 µM (inactive)	> 100 µM (inactive)	> 100 µM (inactive)	> 100 µM (inactive)	> 100 µM (inactive)	> 100 µM (inactive)	> 100 µM (inactive)	> 100 µM (inactive)
COc1ccc(/N=N/c2ccc3oc(=O)c(C(=O)Nc4ccccc4C)cc3c2)cc1	> 10 µM (inactive)	> 10 µM (inactive)	–	> 10 µM (inactive)	> 10 µM (inactive)	> 10 µM (inactive)	> 10 µM (inactive)	4.69 µM (inactive)	> 10 µM (inactive)	–	> 10 µM (inactive)	> 10 µM (inactive)	> 10 µM (inactive)	> 10 µM (inactive)	> 10 µM (inactive)	> 10 µM (inactive)	> 10 µM (inactive)	> 10 µM (inactive)	> 10 µM (inactive)	–
